Reference: US10870713B2, “Procatalyst and polymerization process using the same” (Dow Global Technologies LLC, priority 2015, dated 2020)

Key:
[1] = Solubility testing of procatalysts in aliphatic hydrocarbon solvents; assay type: physicochemical
Procedure: Hexanes (10 mL) was added to this material and the solution was allowed to settle overnight. 5.03 grams of the clear supernatant hexanes was removed from the vial, then the hexanes was removed from this clear solution to leave behind 205 mg of product.
Hexanes (10 mL) was added to this material and the solution was allowed to settle overnight. 5.1 grams of the clear supernatant hexanes was removed from the vial, then the hexanes was removed from this clear solution to leave behind 140 mg of product.
About 950 mg of pre-catalyst used. Added ISOPAR-E (40 mL). Swirled solution then allowed insoluble material to settle to the bottom of the jar overnight. Removed 5.06 grams of ISOPAR-E solution into a vial. Solvent was removed and 120 mg of pre-catalyst was obtained.
To 72.3 mg of the solid in a vial was added 0.9 mL of ISOPAR E. The solution was stirred for about 1 h. The mixture was filtered and the solution was weighted (0.2934 g).
A 20-mL vial was charged with 82.0 mg of the Hf-complex and 0.8 mL of ISOPAR E. The mixture was stirred for 2 h and it was filtered via syringe filter. The colorless solution was weight and then concentrated under vacuum for 3 h. The white solid was weight to obtained 0.0217 g for a 6.2 w/w % solubility.
To the solid was added 0.2198 g of ISOPAR E and stirred for 1 hour. The solid completely dissolved to indicate a 9.5 wt % solubility in ISOPAR E.
To the Hf-complex was added 4 mL of hexane, and the solution was stirred for 4 hours. The solution was filtered via syringe to provide a weight of 2.0638 g. This solution was concentrated under vacuum to afford 0.3228 g of the solid 17 indicative of a 15.6 wt % solubility in hexanes. […]
Solubility was determined by either first forming a saturated solution of the procatalyst in one or more of the solvents as shown in Table 1. […] A portion of the clear supernatant is removed, and the mass is recorded. […] The mass of the resulting procatalyst that was in solution is recorded, allowing for calculation of a w/w % solubility in the indicated solvent. […]

[2] = Batch polymerization of ethylene and 1-octene in a Parr reactor (catalyst efficiency); conditions: reactor 147° C.; ISOPAR-E 1320 g; 1-octene 250 g; ethylene 410 psi; 10 min; procatalyst:activator 1:1.2; procatalyst:MMAO 1:50
Excerpt: The procatalysts shown above were used to polymerize ethylene and 1-octene in a Parr batch polymerization reactor. All feeds were passed through columns of alumina and Q-5 catalyst (available from Engelhard Chemicals Inc.) prior to introduction into the polymerization reactor. Procatalyst and activator solutions were handled in a glove box under nitrogen atmosphere prior to addition to the polymerization reactor.
Table 2 illustrates the batch polymerizations results for each of C1 and 11-12 under the following conditions: reactor temperature: 147° C.; ISOPAR-E: 1320 g; 1-octene: 250 g; ethylene pressure: 410 psi; Run time: 10 min; procatalyst to activator ratio is 1:1.2; activator=[HNMe(C18H37)2][B(C6F5)4]; procatalyst to MMAO ratio is 1:50; […]
The catalyst efficiency is calculated by dividing the number of grams of the polyolefin copolymer prepared by the total number of grams of metal M of ingredient (a) employed (i.e., metal M of the at least one metal-ligand complex of formula (I)) (i.e., catalyst efficiency=g polyolefin copolymer prepared/g metal M of metal-ligand complex(es) of formula (I) employed).

**Q.** With `Cc1cc2c(c(-n3c4ccccc4c4ccccc43)c1)[O][Hf-2]13([CH3])([CH3])[O]c4c(cc(C)cc4-n4c5ccccc5c5ccccc54)-c4ccccc4[O+]1C[C@@H]1CCCCC1C[O+]3c1ccccc1-2` (stereo partly shown) [Procatalyst C1] as the compound, how does the “wt/wt % Solubility, ISOPAR-E” value ([1]; solvent ISOPAR-E) read?
**A.** The value was 1.2 wt/wt %.

**Q.** What about the “wt/wt % Solubility, Hexanes” value ([1]; solvent hexanes) of the same compound?
**A.** Its value is 0.5 wt/wt %.

**Q.** What about the “wt/wt % Solubility, Methylcyclohexane” value ([1]; solvent methylcyclohexane) of the same compound?
**A.** Its value is 1.7 wt/wt %.

**Q.** What about the Efficiency [2] of the same compound?
**A.** Its Efficiency is 826,377 g polyolefin copolymer prepared/g metal M.
